Measurements taken from patent US9062037B2, “Tazarotene derivatives” (Stiefel Laboratories, Inc., priority 2009, dated 2015).
Where two headings read alike, the source gives them in different places.

Columns and labels:
[1] = system: Reconstructed human epidermis (RHE) tissues; test: RT-qPCR gene expression of K10, K19, filaggrin, K4 and K13 in reconstructed human epidermis (RHE) cultures; format: cell-based; settings: 72 h, 2.83 mM in OD/10% DMSO, 6 μl
Summary of the method: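 Primary adult human keratinocyte RHE cultures, air-lifted with vitamin C, were topically dosed on Day 12 with test articles at 2.83 mM in octyldodecanol/10% DMSO. Treatment was 72 h at 37 °C, in triplicate. RT-qPCR values were normalized to GAPDH and expressed as RQ versus untreated tissue.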

[2] = in vitro; settings: human, liver microsomes, pH 7.4, Half-life, HLM
Experimental: (§1) Hepatic microsomal reactions were carried out in microcentrifuge tubes in the following manner. Human liver microsomes (0.5 or 1.0 mg/ml protein), Test Article (1 or 10 μM), paraoxon (0, 10 or 100 μM), NADPH regenerating system (10 mM glucose-6-phosphate, 1 unit/ml glucose-6-phosphate dehydrogenase, 1 mM NADP^+), magnesium chloride (5 mM) in 0.1 M potassium phosphate buffer, pH 7.4 were incubated at 37° C. in a shaking water bath. Reactions were initiated with the addition of substrate with the exception of the zero-time incubations. The total reaction volume was 0.2 ml. The reactions were incubated for 15, 30, 45 or 60 minutes, terminated with 0.2 ml ice-cold acetonitrile and then placed on ice. For zero-time incubations, ice cold acetonitrile was added to the mixture containing microsomes, along with NADPH regenerating system, magnesium chloride in phosphate buffer and the Test Article. Each time point was carried out in triplicate.
(§2) Disappearance of Test Article and formation of metabolites following in vitro metabolism were determined by LC-MS/MS using multiple reaction monitoring. LightSight® software (Applied Biosystems, Foster City, Calif.) was used to generate the mass spectrometry methods and carry out the data mining.
(§3) Control incubations were carried out with the identical incubation procedures as described above with the following exceptions. In negative control reactions, microsomes were not included. […] Duplicate reactions with an initial concentration of 10 μM were incubated for 0 or 30 minutes. Microsomal metabolic stability of 7-ethoxycoumarin was determined by LC-MS/MS.

[3] = HPLC analysis of mixtures of DUAC gel and TAZORAC cream (degradation of tazarotene in the presence of benzoyl peroxide); format: physicochemical; settings: fresh samples
Experimental: DUAC® gel (1% clindamycin and 5% benzoyl peroxide marketed by Stiefel Laboratories, Inc.) and TAZORAC® cream (0.1% tazarotene marketed by Allergan, Inc.) have been successfully used to treat facial acne. However, these topical treatments are not approved for concomitant use. To study whether tazarotene is susceptible to oxidative decomposition by benzoyl peroxide, an in vitro laboratory study was conducted wherein a mixture of DUAC gel and TAZORAC cream was prepared.
Samples were prepared by taking equal portions of DUAC gel and TAZORAC cream and mixing them thoroughly at room temperature with a spatula in a suitable container to form a uniform mixture. The initial samples were analyzed immediately by HPLC. The other samples were placed into an oven at 35° C. and removed for analysis after one, two, four, six and eight hours. An allowance was made for product evaporation over the course of the study.

[4] = system: SkinEthic RHE cultures; test: IL-1α and IL-8 activity assay in SkinEthic RHE cultures; format: cell-based, human; settings: 6 μl test article, 72 hours
Experimental: SkinEthic RHE cultures were transferred into 6-well plates containing 1.0 mL/well growth media. The cultures were equilibrated at 37° C. and the media was changed daily. The cultures were subsequently placed in 60 mm petri dishes containing 3.5 mL growth media. 6 μl aliquots of the Test Articles shown in Table 3 were applied to duplicate cultures. The cultures were incubated at 37° C. for 72 hours. At the end of the incubation period, the growth media was collected and stored at −20° C. The tissues were cut in half and one half was placed in 10% NBF for histology, while the other half was placed in RNAlater™ solution (Ambion). The following analyses were performed: a) IL-1α and IL-8 activity assay; b) Hand E staining; c) Immunohistochemistry for K10, K19 and filaggrin; and d) qRT-PCR to quantitate K10, K19 and filaggrin expression.

[5] = In vitro application of DUAC gel/TAZORAC cream mixture to split-thickness human skin; tazarotene and degradants quantified by LC/MS/MS; format: in vitro ADME; settings: for detected in the receiving medium (passing through the skin): DUAC/TAZORAC mixture applied to split-thickness human skin
Experimental: An in vitro study was conducted to assess the formation of tazarotene degradants following the application of a mixture of DUAC gel and TAZORAC cream to human skin.
Equal portions of DUAC gel and TAZORAC cream were dispensed into a glass vial and mixed for approximately three minutes with a metal spatula to ensure a homogenous mixture. Samples of European DUAC gel and US DUAC gel were used in separate experiments. […] The test mixtures were then applied to the surface of split-thickness skin (˜0.25 mm) at a dose of 15.6 mg/cm^2 and spread evenly using a positive displacement pipette.
After 2 and 6 hours, the skin samples were washed, tape stripped twice, and then the epidermis was peeled from the dermis using a heat block. The skin samples were then extracted with acetonitrile overnight at 4° C. The distribution of tazarotene and its degradants within the epidermis, dermis and surface wash were quantified by LC/MS/MS with a 50 pg/mL LOQ. The experiments were performed under yellow light conditions. For the purposes of comparison, mixtures of DUAC gel and TAZORAC cream were also prepared and retained for stability testing at 0, 2 and 6 hour time points.

[6] = for k constant: HLM
Experimental: as §1, §2, §3

[7] = read-out: K4 Fold Change vs Untreated/OD controls (upregulation)
[8] = read-out: K13 Fold Change vs Untreated/OD controls (upregulation)
[9] = read-out: K19 Fold Change vs Untreated/OD controls (upregulation)
[10] = 1 μM initial concentration, Complete (with NADPH), 0 min
[11] = 1 μM initial concentration, Complete (with NADPH), 15 min
[12] = 1 μM initial concentration, Complete (with NADPH), 30 min
[13] = 1 μM initial concentration, Complete (with NADPH), 45 min
[14] = 1 μM initial concentration, Complete (with NADPH), 60 min
[15] = 1 μM initial concentration, Without NADPH, 0 min
[16] = 1 μM initial concentration, Without NADPH, 15 min
[17] = 1 μM initial concentration, Without NADPH, 30 min
[18] = 1 μM initial concentration, Without NADPH, 45 min
[19] = 1 μM initial concentration, Without NADPH, 60 min
[20] = 10 μM initial concentration, Complete (with NADPH), 0 min
[21] = 10 μM initial concentration, Complete (with NADPH), 15 min
[22] = 10 μM initial concentration, Complete (with NADPH), 30 min
[23] = 10 μM initial concentration, Complete (with NADPH), 45 min
[24] = 10 μM initial concentration, Complete (with NADPH), 60 min
[25] = 10 μM initial concentration, Without NADPH, 0 min
[26] = 10 μM initial concentration, Without NADPH, 15 min
[27] = 10 μM initial concentration, Without NADPH, 30 min
[28] = 10 μM initial concentration, Without NADPH, 45 min
[29] = 10 μM initial concentration, Without NADPH, 60 min

Compound | fold induction at 2830 µM [1, 7] | fold induction at 2830 µM [1, 8] | fold induction at 2830 µM [1, 9] | half-life at 1 µM ([2]; Complete) | half-life at 1 µM ([2]; Without NADPH) | half-life at 10 µM ([2]; Complete) | half-life at 10 µM ([2]; Without NADPH) | IL-1α activity compared to untreated and vehicle controls [4] | detected in the receiving medium (passing through the skin) [5] | Test Article remaining, percent of initial concentration [6, 10] | Test Article remaining, percent of initial concentration [6, 11] | Test Article remaining, percent of initial concentration [6, 12] | Test Article remaining, percent of initial concentration [6, 13] | Test Article remaining, percent of initial concentration [6, 14] | Test Article remaining, percent of initial concentration [6, 15] | Test Article remaining, percent of initial concentration [6, 16] | Test Article remaining, percent of initial concentration [6, 17] | Test Article remaining, percent of initial concentration [6, 18] | Test Article remaining, percent of initial concentration [6, 19] | Test Article remaining, percent of initial concentration [6, 20] | other results
CCOC(=O)c1ccc(C#Cc2ccc3c(c2)C(C)(C)CC(OC(=O)c2ccccc2)S3)nc1 (stereo not shown) [Compound 4, 6-(2-(2-benzoyloxy-4,4-dimethylthiochroman-6-yl)ethynyl)nicotinic acid, ethyl ester] | 29 | 7 | 8 | 7.76 min | 7.19 min | 71.4 min | 47.5 min | only slightly increased | could not be detected | 100% | 20.3% | 4.45% | 1.47% | 0.73% | 100% | 17.3% | 2.97% | 1.07% | 0.53% | 100% | % Label Tazarotene Benzoate ([3]; 35° C., 4 hours): ~6.3 % Label; detectable in epidermis and dermis samples ([5]; 2 and 6 hours post-application, all samples including the placebo): detectable in all samples; quantity in stability samples at the 6 hour time point relative to the 2 hour time point ([5]; mixture of DUAC gel and TAZORAC cream retained for stability testing): significant increase; Test Article remaining, percent of initial concentration [6, 21]: 99.3%; Test Article remaining, percent of initial concentration [6, 22]: 73.4%; Test Article remaining, percent of initial concentration [6, 23]: 63.2%; Test Article remaining, percent of initial concentration [6, 24]: 55.2%; Test Article remaining, percent of initial concentration [6, 25]: 100%; Test Article remaining, percent of initial concentration [6, 26]: 87.0%; Test Article remaining, percent of initial concentration [6, 27]: 64.0%; Test Article remaining, percent of initial concentration [6, 28]: 51.0%; Test Article remaining, percent of initial concentration [6, 29]: 41.0%; k constant ([6]; 1 μM, Complete): −0.0893; k constant ([6]; 1 μM, Without NADPH): −0.0964; k constant ([6]; 10 μM, Complete): −0.0097; k constant ([6]; 10 μM, Without NADPH): −0.0146
CCOC(=O)c1ccc(C#Cc2ccc3c(c2)C(C)(C)CCS3)nc1 [Tazarotene, ethyl 6-[2-(4,4-dimethylthiochroman-6-yl)-ethynyl nicotinate] | 103 to 180 | 12 | 33 to 43 | 7.88 min | 7.71 min | 8.38 min | 7.58 min | only slightly increased | could not be detected | 100% | 21.1% | 4.91% | 1.80% | 0.70% | 100% | 22.0% | 4.86% | 1.43% | 0.65% | 100% | tazarotene lost ([3]; mixture of DUAC gel and TAZORAC cream, after four hours): approximately 22%; Test Article remaining, percent of initial concentration [6, 21]: 24.1%; Test Article remaining, percent of initial concentration [6, 22]: 6.55%; Test Article remaining, percent of initial concentration [6, 23]: 2.18%; Test Article remaining, percent of initial concentration [6, 24]: 0.89%; Test Article remaining, percent of initial concentration [6, 25]: 100%; Test Article remaining, percent of initial concentration [6, 26]: 21.9%; Test Article remaining, percent of initial concentration [6, 27]: 4.64%; Test Article remaining, percent of initial concentration [6, 28]: 1.48%; Test Article remaining, percent of initial concentration [6, 29]: 0.55%; k constant ([6]; 1 μM, Complete): −0.0880; k constant ([6]; 1 μM, Without NADPH): −0.0899; k constant ([6]; 10 μM, Complete): −0.0827; k constant ([6]; 10 μM, Without NADPH): −0.0914
